Assay results from patent US7696339B2, “Nucleic acid encoding monkey QRFP” (Banyu Pharmaceutical Co., Ltd., priority 2004, dated 2010).
Square brackets hold non-standard residues; d marks the D form. pGlu = O=C1CC[C@@H](C(=O)O)N1

Assays:
Assay type in all cases: cell-based
monkey GPR103 = test: Intracellular calcium ion concentration increasing activity (FLIPR) in monkey GPR103 gene-expressing CHO cells; conditions: Fluo4, read-out: 50% effective concentration, intracellular calcium ion concentration increasing activity
Protocol: (§1) CHO cells were transfected with pEF1/V5-HisB plasmid vector carrying the monkey GPR103 gene or human GPR103 gene obtained in Example 1 and the same vector without the insert (mock), and Geneticin (Invitrogen Corp.) was added to the medium to a final concentration of 2 mg/ml for selection of expressing cells. Next, the monkey or human GPR103 gene-expressing cells were singly cloned by the limiting dilution method and supplied for the following test. The monkey QRFP43 and QRFP26 synthesized by the method described in Example 6 were also supplied for the test.
(§2) After 24 hours of culturing, the cells were seeded in a 96-well poly-D-lysine coated black culture plate (Becton Dickinson) at 2.5×10^4 cells/well and cultured for two nights. […] Different concentrations of monkey QRFP43 or QRFP26 dissolved in the assay buffer were also set in the FLIPR, and then a sample was added to the cells and the change in intracellular calcium ion concentration-dependent fluorescence produced by irradiation with exciting light was measured.
(§3) Defining the change in fluorescence as the difference between the fluorescence immediately before addition of monkey QRFP43 or QRFP26 and the maximum value after addition, a Prism Version 4.00 (GraphPad) was used to graph the change in fluorescence due to each concentration of peptide (protein), and the 50% effective concentration was determined.

human GPR103 = target: T1, human GPR103 (Homo sapiens, UniProt Q96P65); test: Intracellular calcium ion concentration increasing activity (FLIPR) in human GPR103 gene-expressing CHO cells; conditions: Fluo4, read-out: 50% effective concentration, intracellular calcium ion concentration increasing activity
T1 construct: expressed in transfected cells; host or cells: CHO cells, Geneticin-selected, single clone by limiting dilution
T1 sequence (Q96P65 1-431): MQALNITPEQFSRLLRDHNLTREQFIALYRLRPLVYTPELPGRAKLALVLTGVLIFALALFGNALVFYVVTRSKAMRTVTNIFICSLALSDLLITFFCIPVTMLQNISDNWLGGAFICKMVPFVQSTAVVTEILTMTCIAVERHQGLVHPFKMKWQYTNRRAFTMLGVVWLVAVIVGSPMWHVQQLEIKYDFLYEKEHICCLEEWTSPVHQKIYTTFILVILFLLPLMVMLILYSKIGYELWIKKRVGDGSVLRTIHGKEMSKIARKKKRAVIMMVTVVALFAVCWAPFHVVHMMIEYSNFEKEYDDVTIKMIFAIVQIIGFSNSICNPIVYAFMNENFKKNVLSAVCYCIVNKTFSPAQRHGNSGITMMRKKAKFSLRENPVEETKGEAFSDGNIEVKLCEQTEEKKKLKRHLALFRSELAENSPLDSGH
Protocol: as §1, §2, §3

[1] = test system: CHO cells transfected with the mock vector; test: Intracellular calcium ion concentration change in CHO cells transfected with the mock vector
Protocol: as §1, §2, §3

Row | EC50 (monkey GPR103) [nM] | EC50 (human GPR103) [nM] | Substance | change in intracellular calcium ion concentration [1]
1 | 9.2 | 1.7 | H-ASGPLGNLAEELNGYSRKKGGFSFRF-NH2 [monkey QRFP26] | no change
2 | 69 | 58 | [pGlu]DEGSEADDFLPAGGVKASGPLGNLAEELNGYSRKKGGFSFRF-NH2 [monkey QRFP43] | no change
